In publication PMC12817916, “A small-molecule HSP90 inhibitor, NVP-HSP990, alleviates rotavirus infection” (Journal of Virology, 2025):
Read-outs that look alike come from different tables or passages of the source.

Experiments:
RV VP2, VP6, NSP4, NSP5 = assay: RV gene transcription and antigen expression in Caco-2 cells (qPCR, WB, IFA); format: cell-based, Rotavirus; settings: RV-infected Caco-2 cells, 18 h
Method: Caco-2 cells growing on coverslips were mock-infected with PBS or infected with RV Wa or SA11 strains (MOI = 1), then the cells were cultivated with DMEM containing 100 nM NVP-HSP990 or an equal volume of DMSO as a control for another 18 h after infection. The cells were then washed with PBS, fixed in 4% paraformaldehyde for 20 min, followed by permeabilization in 0.5% Triton X-100 for 10 min and blocking with 5% BSA (Beyotime, China) for 1 h at room temperature. The cells were then incubated with rabbit anti-ZO-1 monoclonal antibody (CST, USA) (1:100) or rabbit anti-RV VP6 polyclonal antibodies (CUSABIO, China) (1:50) for 2 h at room temperature, washed twice with PBS, and incubated with Cy3-conjugated goat anti-rabbit antibodies (Beyotime, China) (1:500) for 1 h at room temperature. In some experiments, the cells were also stained with FITC-conjugated goat anti-RV antibodies (Virostat, USA) (1:100) for 1 h at room temperature and followed by 5 µg/mL 2-(4-amidinophenyl)-6-indolecarbamidine dihydrochloride (DAPI) (Sigma-Aldrich, USA) staining for 10 min. The triple-stained cells were washed twice with PBS and mounted in Prolong Gold Antifade Reagent (CST, USA). Microscopic images were acquired with an EVOS M5000 system (Thermo Fisher Scientific, USA) using the built-in Celleste software (v.6.0). […] Minimal post-processing (image cropping and annotations) was applied through Adobe Illustrator 2019 (Adobe Systems, USA) to ensure readability. […]
MA104, Caco-2, and HT-29 cells were mock-infected with PBS, infected with RV Wa or SA11 strains (MOI = 3), or treated with 1 µM C16-PAF (C16) for 1 h. […] After protein quantification with a BCA kit (Beyotime, China), the protein samples were mixed with 25 µL 5× SDS loading buffer (Beyotime, China), boiled at 100°C for 5 min, chilled on ice, vortexed for seconds, and centrifuged at 12,000 × g for 3 min at room temperature. […]
(A) Caco-2 cells were infected with RV (Wa or SA11 strains) at varying MOIs (0.001–10), followed by treatment with 100 nM NVP-HSP990 or an equal volume of DMSO (as a control) for 24 h. Viral replication was assessed using PFA. […]

[1] = cited from earlier work
RV SA11 (G3P[2]) strain = assay: In vitro assay of RV replication inhibition (PFA); format: cell-based, Rotavirus; settings: MOI = 1, 24 h p.i., PFA, read-out: IC50
Method: For analysis of effects of different […] on RV replication in vitro, 10,000 MA104 cells, 30,000 Caco-2 cells, and 80,000 HT-29 cells in 100 µL complete DMEM medium were seeded in 96-well plates and cultured at 37°C and 5% CO2 for 24 h. Then the cells were infected with RV Wa or SA11 strains (MOI = 1 (PFU/cell)) for 1 h. After removing the viruses and washing cells two times with DMEM, 100 µL DMEM containing the indicated concentrations of drugs was added to each well, and the plates were incubated at 37°C and 5% CO2. At 24 h p.i., the infected cells and culture medium were collected, frozen/thawed twice, and subjected to centrifugation at 1,000 × g for 3 min at room temperature. Then, the supernatant was subjected to analysis of viral load by PFA. […] Dose-response data (drug concentrations as x-axis and normalized inhibition percentages as y-axis) were fitted to a dose-response inhibition model ([Inhibitor] vs normalized response – Variable slope). […] Model adequacy was validated using goodness-of-fit metrics (R^2 ≥ 0.95), 95% confidence intervals, and residual distribution analysis.
Wa/SA11 strains were titrated by PFA, which was carried out as described (3) with some modification. Briefly, confluent monolayers of MA104 cells in 24-well tissue culture plates were infected with 100 µL supernatants containing infectious RV particles which were serially diluted (10^1, 10^2, 10^3, and 10^4) with DMEM containing 1 µg/mL trypsin and penicillin (10,000 U/mL)-streptomycin (5 µg/mL) (DMEM-T) for 1 h at 37°C. Then 400 µL agarose overlay (0.8% agarose in 1×DMEM-T) was added and the plates were incubated at 37℃ and 5% CO2 for 5 days. The cells in each well were fixed by 1 mL 4% paraformaldehyde (Sangon Biotech, China) overnight (> 12 h) at room temperature. Then, the paraformaldehyde and agarose were removed and the monolayers were stained with 0.5 ml of a 1% (v/v) crystal violet (Sangon Biotech, China) diluted in distilled water for 10 min at room temperature. Then, the plates were drained and dried, and the plaques were enumerated. As the EDIM strain is not able to grow in cell culture, it was titrated by qPCR analysis as described (4) with EDIM VP6 gene as the target.

## COc1cccc(-c2cc(F)ccc2[C@H]2Cc3nc(N)nc(C)c3C(=O)N2)n1 [NVP-HSP990]
RV VP2, VP6, NSP4, NSP5; 100 nM
  RV VP6 expression (IFA): potent inhibition
RV VP2, VP6, NSP4, NSP5; MOI = 1, 100 nM
  RNA synthesis of RV proteins VP2, VP6, NSP4, and NSP5 (qPCR): significant reduction
  RV structural protein VP6 (WB): remarkably reduced
[1]
  brain penetration: brain-penetrating
  oral bioavailability: orally bioavailable
RV SA11 (G3P[2]) strain; SA11 strain in Caco-2 cells
  IC50: 7.47 ± 4.84 nM
RV SA11 (G3P[2]) strain; SA11 strain in HT-29 cells
  IC50: 3.85 ± 1.16 nM
RV SA11 (G3P[2]) strain; SA11 strain in MA104 cells
  IC50: 0.84 ± 0.17 nM
